Results as given in US20240124464A1, “SUBSTITUTED FUSED BICYCLIC COMPOUND AS KINASE INHIBITOR AND USE THEREOF” (IMPACT THERAPEUTICS (SHANGHAI), INC, priority 2020, published 2024).

Key:
NUAK1(h) enzyme = target: T1, NUAK1(h) enzyme (Homo sapiens, UniProt O60285); assay: In vitro NUAK1 enzymatic assay (Eurofins Discovery, [γ-33P]-ATP filter assay); type: biochemical; details: 45 μM ATP, 40 min, room temperature; read-out: IC50, inhibitory effect on NUAK1 enzyme activity
T1 construct: purchased Eurofins Discovery
T1 sequence (O60285 1-661): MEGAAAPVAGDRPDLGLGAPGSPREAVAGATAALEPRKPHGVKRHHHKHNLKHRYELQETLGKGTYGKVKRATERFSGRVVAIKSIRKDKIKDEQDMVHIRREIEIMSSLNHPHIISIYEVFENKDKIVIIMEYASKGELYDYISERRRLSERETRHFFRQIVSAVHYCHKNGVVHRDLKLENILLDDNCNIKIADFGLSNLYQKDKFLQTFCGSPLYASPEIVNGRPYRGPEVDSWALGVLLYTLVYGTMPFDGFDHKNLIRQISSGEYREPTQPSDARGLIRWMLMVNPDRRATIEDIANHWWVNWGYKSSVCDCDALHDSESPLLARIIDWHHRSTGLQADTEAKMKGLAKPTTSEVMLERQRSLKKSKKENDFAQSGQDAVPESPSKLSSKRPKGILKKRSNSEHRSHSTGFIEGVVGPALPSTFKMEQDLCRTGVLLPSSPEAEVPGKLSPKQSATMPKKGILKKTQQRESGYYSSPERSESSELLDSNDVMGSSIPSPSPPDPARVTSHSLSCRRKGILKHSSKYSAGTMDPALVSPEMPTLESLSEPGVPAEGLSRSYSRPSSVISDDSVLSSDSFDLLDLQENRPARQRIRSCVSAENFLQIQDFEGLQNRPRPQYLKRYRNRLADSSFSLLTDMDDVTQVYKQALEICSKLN
Method: In Vitro Assay to Determine the Inhibitory Effect of Compounds in the Patent on NUAK1 Enzymatic Activity
The in vitro NUAK1 enzymatic assay was carried out at Eurofins Discovery to evaluate the inhibitory effect of the compounds presented in the invention. The assay protocol is as follow: the compound to be tested was mixed with NUAK1(h) enzyme and 300 μM […] substrate in 8 mM MOPS (pH 7.0) buffer containing 0.2 mM EDTA and incubated at room temperature. A Mg/ATP mixture containing 10 mM magnesium acetate and 45 μM [y-33P]-ATP was added to start the reaction. After incubation for 40 min at room temperature, the reaction was terminated by adding 0.5% phosphoric acid. Then, 10 μL of the reaction mix was spotted onto a P30 filter paper followed with four times of wash with 0.425% phosphoric acid solution (4 min each time), and one time wash with methanol. The filter paper was air-dried and counted in a liquid scintillation counter. The values obtained were plotted against the drug concentration and the IC50 was calculated.
Table 1 summarizes the inhibitory effect (IC50) of compounds tested on the NUAK1 enzyme activity in the present invention. ++++ indicates IC50≤10 nM; […]; ++ indicates 100 nM<IC50≤1 μM; + indicates IC50>1 μM.

NUAK2(h) enzyme = target: T2, NUAK2(h) enzyme (Homo sapiens, UniProt Q9H093); assay: In vitro NUAK2 enzymatic assay (Eurofins Discovery, [γ-33P]-ATP filter assay); type: biochemical; details: 45 μM ATP, 40 min, room temperature; read-out: IC50, inhibitory effect on NUAK2 enzyme activity
T2 construct: purchased Eurofins Discovery
T2 sequence (Q9H093 1-628): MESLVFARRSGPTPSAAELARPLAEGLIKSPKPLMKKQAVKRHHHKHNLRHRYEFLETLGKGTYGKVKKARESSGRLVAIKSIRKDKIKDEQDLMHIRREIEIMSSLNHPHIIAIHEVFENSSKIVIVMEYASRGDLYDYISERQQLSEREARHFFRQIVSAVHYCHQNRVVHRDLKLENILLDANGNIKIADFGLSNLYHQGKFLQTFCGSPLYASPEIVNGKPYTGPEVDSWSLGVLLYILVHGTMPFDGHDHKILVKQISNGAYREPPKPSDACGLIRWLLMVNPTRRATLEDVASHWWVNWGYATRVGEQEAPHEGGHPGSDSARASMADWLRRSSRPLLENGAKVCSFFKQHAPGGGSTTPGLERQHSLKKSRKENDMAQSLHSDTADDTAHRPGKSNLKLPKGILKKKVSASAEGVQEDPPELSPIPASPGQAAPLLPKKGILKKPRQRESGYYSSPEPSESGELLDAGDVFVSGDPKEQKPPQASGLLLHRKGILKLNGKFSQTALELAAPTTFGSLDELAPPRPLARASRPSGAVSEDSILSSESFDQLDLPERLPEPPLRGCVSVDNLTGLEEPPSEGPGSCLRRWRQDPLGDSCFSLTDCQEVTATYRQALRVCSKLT
Method: In Vitro Assay to Determine the Inhibitory Effect of Compounds in the Patent on NUAK2 Enzymatic Activity
The in vitro NUAK2 enzymatic assay was carried out at Eurofins Discovery to evaluate the inhibitory effect of the compounds presented in the invention. The assay protocol is as follow: the compound to be tested was mixed with NUAK2(h) enzyme and 300 […] substrate in 8 mM MOPS (pH 7.0) buffer containing 0.2 mM EDTA. A Mg/ATP mixture containing 10 mM magnesium acetate and 45 μM [γ-33P]-ATP was added to start the reaction. After incubation for 40 min at room temperature, the reaction was terminated by adding 0.5% phosphoric acid. Then 10 μL of the reaction mix was spotted onto a P30 filter paper. The filter paper was washed four times with 0.425% phosphoric acid with 4 min for each wash, and one time with methanol. The filter paper was air-dried and counted in a liquid scintillation counter. The values obtained were plotted against the drug concentration and the IC50 was calculated.
Table 1 summarizes the inhibitory effect (IC50) of compounds on the NUAK2 enzyme activity in the present invention. ++++ indicates IC50≤10 nM; +++ indicates 10 nM<IC50≤100 nM; ++ indicates 100 nM<IC50≤1 μM; + indicates IC50>1 μM.

**Q.** Which results are given for `COc1cc(N2CCN(C)CC2)ccc1Nc1ncc2c(n1)N(C1CC1)C(=O)NC2` [Example 3]?
**A.** IC50 (NUAK1(h) enzyme): 100 to 1000 nM; IC50 (NUAK2(h) enzyme): > 1000 nM

**Q.** What does the source list for `COc1cc(N2CCN(C)CC2)ccc1Nc1ncc2c(n1)N(C1CCCC1)C(=O)N(C)C2` [Example 4, 1-cyclopentyl-7-((2-methoxy-4-(4-methylpiperazin-1-yl)phenyl)amino)-3-methyl-3,4-dihydropyrimido[4,5-d]pyrimidin-2(1H)-one]?
**A.** IC50 (NUAK1(h) enzyme): 100 to 1000 nM; IC50 (NUAK2(h) enzyme): 100 to 1000 nM

**Q.** How did the IC50 (NUAK1(h) enzyme) turn out when `CCOc1cc(N2CCN(C)CC2)ccc1Nc1ncc2cnc(=O)n(C3CCCC3)c2n1` [Example 7, 1-cyclopentyl-7-((2-ethoxy-4-(4-methylpiperazin-1-yl)phenyl)amino)pyrimido[4,5-d]pyrimidin-2(1H)-one] was run?
**A.** > 1000 nM

**Q.** And the IC50 (NUAK2(h) enzyme)?
**A.** 100 to 1000 nM

**Q.** `CC(C)Oc1cc(N2CCN(C)CC2)ccc1Nc1ncc2cnc(=O)n(C3CCCC3)c2n1` [Example 8, 1-cyclopentyl-7-((2-isopropoxy-4-(4-methylpiperazin-1-yl)phenyl)amino)pyrimido[4,5-d]pyrimidin-2(1H)-one] was tested. Which IC50 (NUAK1(h) enzyme) did it give?
**A.** > 1000 nM

**Q.** And the IC50 (NUAK2(h) enzyme)?
**A.** > 1000 nM

**Q.** What does the source list for `CN1CCN(c2ccc(Nc3ncc4cnc(=O)n(C5CCCC5)c4n3)c(OC(F)(F)F)c2)CC1` [Example 9, 1-cyclopentyl-7-((4-(4-methylpiperazin-1-yl)-2-(trifluoromethoxy)phenyl)amino)pyrimido[4,5-d]pyrimidin-2(1H)-one]?
**A.** IC50 (NUAK1(h) enzyme): > 1000 nM; IC50 (NUAK2(h) enzyme): > 1000 nM

**Q.** For `CN1CCN(c2ccc(Nc3ncc4cnc(=O)n(C5CCCC5)c4n3)c(Cl)c2)CC1` [Example 11, 7-((2-chloro-4-(4-methylpiperazin-1-yl)phenyl)amino)-1-cyclopentylpyrimido[4,5-d]pyrimidin-2(1H)-one], which IC50 (NUAK1(h) enzyme) is on record?
**A.** 100 to 1000 nM

**Q.** And the IC50 (NUAK2(h) enzyme)?
**A.** 100 to 1000 nM

**Q.** `CN1CCN(c2ccc(Nc3ncc4cnc(=O)n(C5CCCC5)c4n3)c(Br)c2)CC1` [Example 12, 7-((2-bromo-4-(4-methylpiperazin-1-yl)phenyl)amino)-1-cyclopentylpyrimido[4,5-d]pyrimidin-2(1H)-one] was tested. Which IC50 (NUAK1(h) enzyme) did it give?
**A.** 100 to 1000 nM

**Q.** What about the IC50 (NUAK2(h) enzyme) of the same molecule?
**A.** 100 to 1000 nM

**Q.** Which IC50 (NUAK1(h) enzyme) does the source give for `COc1cc(N2CCN(C)CC2)ccc1Nc1nc(C)c2cnc(=O)n(C3CCCC3)c2n1` [Example 13, 1-cyclopentyl-7-((2-methoxy-4-(4-methylpiperazin-1-yl)phenyl)amino)-5-methylpyrimido[4,5-d]pyrimidin-2(1H)-one] here?
**A.** > 1000 nM

**Q.** And the IC50 (NUAK2(h) enzyme)?
**A.** > 1000 nM

**Q.** With `COc1cc(N2CCN(C)CC2)ccc1Nc1ncc2cnc(=O)n(C3CCC3)c2n1` [Example 14, 1-cyclobutyl-7-((2-methoxy-4-(4-methylpiperazin-1-yl)phenyl)amino)pyrimido[4,5-d]pyrimidin-2(1H)-one] as the molecule, how does the IC50 (NUAK1(h) enzyme) read?
**A.** 100 to 1000 nM

**Q.** What about the IC50 (NUAK2(h) enzyme) of the same molecule?
**A.** 100 to 1000 nM

**Q.** With `COc1cc(N2CCN(C)CC2)ccc1Nc1ncc2cnc(=O)n(C3CC3)c2n1` [Example 15, 1-cyclopropyl-7-((2-methoxy-4-(4-methylpiperazin-1-yl)phenyl)amino)pyrimido[4,5-d]pyrimidin-2(1H)-one] as the molecule, how does the IC50 (NUAK1(h) enzyme) read?
**A.** 100 to 1000 nM

**Q.** And the IC50 (NUAK2(h) enzyme)?
**A.** > 1000 nM

**Q.** How did the IC50 (NUAK1(h) enzyme) turn out when `COc1cc(N2CCN(C)CC2)ccc1Nc1ncc2cnc(=O)n(C3CCOCC3)c2n1` [Example 16, 7-((2-methoxy-4-(4-methylpiperazin-1-yl)phenyl)amino)-1-(tetrahydro-2H-pyran-4-yl)pyrimido[4,5-d]pyrimidin-2(1H)-one] was run?
**A.** > 1000 nM

**Q.** What about the IC50 (NUAK2(h) enzyme) of the same molecule?
**A.** 100 to 1000 nM

**Q.** Which IC50 (NUAK1(h) enzyme) does the source give for `COc1cc(N2CCN(C)CC2)ccc1Nc1cc2c(cn1)cc(C#N)c(=O)n2C1CCCC1` [Example 25, 1-cyclopentyl-7-((2-methoxy-4-(4-methylpiperazin-1-yl)phenyl)amino)-2-oxo-1,2-dihydro-1,6-naphthyridine-3-carbonitrile] here?
**A.** > 1000 nM

**Q.** What about the IC50 (NUAK2(h) enzyme) of the same molecule?
**A.** 100 to 1000 nM

**Q.** Which results are given for `COc1cc(N2CCN(C)CC2)ccc1Nc1ncc2c(n1)N(C1CC1)C(=O)CC2` [Example 30]?
**A.** IC50 (NUAK1(h) enzyme): 100 to 1000 nM; IC50 (NUAK2(h) enzyme): > 1000 nM

**Q.** `COc1cc(N2CCN(C)CC2)ccc1Nc1ncc2c(n1)N(C1CCCC1)C(=O)CO2` [Example 31, 8-cyclopentyl-2-((2-methoxy-4-(4-methylpiperazin-1-yl)phenyl)amino)-6H-pyrimido[5,4-b][1,4]oxazin-7(8H)-one] was tested. Which IC50 (NUAK1(h) enzyme) did it give?
**A.** 100 to 1000 nM

**Q.** And the IC50 (NUAK2(h) enzyme)?
**A.** 100 to 1000 nM

**Q.** For `COc1cc(N2CCN(C)CC2)ccc1Nc1ncc2c(n1)N(C1CCOCC1)C(=O)NC2` [Example 33, 7-((2-methoxy-4-(4-methylpiperazin-1-yl)phenyl)amino)-1-(tetrahydro-2H-pyran-4-yl)-3,4-dihydropyrimido[4,5-d]pyrimidin-2(1H)-one], which IC50 (NUAK1(h) enzyme) is on record?
**A.** 100 to 1000 nM

**Q.** And the IC50 (NUAK2(h) enzyme)?
**A.** 100 to 1000 nM

**Q.** Which results are given for `COc1cc(N2CCN(C)CC2)ccc1Nc1ncc2cncc(C3CCCC3)c2n1` [Example 34, 8-cyclopentyl-N-(2-methoxy-4-(4-methylpiperazin-1-yl)phenyl)pyrido[4,3-d]pyrimidin-2-amine]?
**A.** IC50 (NUAK1(h) enzyme): 10 to 100 nM; IC50 (NUAK2(h) enzyme): 10 to 100 nM

**Q.** With `COc1cc(N2CCN(C)CC2)ccc1Nc1ncc2cncc(C3=CCCC3)c2n1` [Example 35, 8-(cyclopent-1-en-1-yl)-N-(2-methoxy-4-(4-methylpiperazin-1-yl)phenyl)pyrido[4,3-d]pyrimidin-2-amine] as the molecule, how does the IC50 (NUAK1(h) enzyme) read?
**A.** 10 to 100 nM

**Q.** And the IC50 (NUAK2(h) enzyme)?
**A.** 10 to 100 nM

**Q.** Which results are given for `COc1cc(N2CCN(C)CC2)ccc1Nc1ncc2c(C)c(C(C)=O)c(=O)n(C3CCCC3)c2n1` [Example 36, 6-acetyl-8-cyclopentyl-2-((2-methoxy-4-(4-methylpiperazin-1-yl)phenyl)amino)-5-methylpyrido[2,3-d]pyrimidin-7(8H)-one]?
**A.** IC50 (NUAK1(h) enzyme): > 1000 nM; IC50 (NUAK2(h) enzyme): 100 to 1000 nM

**Q.** How did the IC50 (NUAK1(h) enzyme) turn out when `COc1cc(N2CCNCC2)ccc1Nc1ncc2c(C)c(C(C)=O)c(=O)n(C3CCCC3)c2n1` [Example 37, 6-acetyl-8-cyclopentyl-2-((2-methoxy-4-(piperazin-1-yl)phenyl)amino)-5-methylpyrido[2,3-d]pyrimidin-7(8H)-one] was run?
**A.** > 1000 nM

**Q.** What about the IC50 (NUAK2(h) enzyme) of the same molecule?
**A.** 100 to 1000 nM

**Q.** Which results are given for `CCC(=O)Nc1cccc(Oc2nc(Nc3ccc(N4CCN(C)CC4)cc3OC)ncc2I)c1` [HTH-02-006, reference compound]?
**A.** IC50 (NUAK1(h) enzyme): 10 to 100 nM; IC50 (NUAK2(h) enzyme): 100 to 1000 nM
